Assay results: PubChem BioAssay (NCI)
Where “and” joins values, the source holds several entries; their conditions need not be identical. Equal values may be shown once.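 Following 48 hours of exposure in 96-well plates, responses at five concentrations were used to interpolate endpoints linearly. GI50 is the concentration that inhibits growth by half. The concentration for full growth arrest is given as TGI.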

Tested on: MDA-MB-468 breast
Test: NCI-60 cell line screen, 48 h

Question: How did the GI50 turn out when `CN(C)c1ccc(/C=C(\C#N)c2cc3ccccc3n2C)cc1` was run?
Answer: Its GI50 is 0.0694 µM.

Question: What about the TGI of the same molecule?
Answer: Its TGI is 2.11 µM.

Question: For `Fc1ccc(CNc2c3ccccc3nc3ccccc23)cc1`, which GI50 is on record?
Answer: The GI50 was 1.91 µM.

Question: What about the TGI of the same molecule?
Answer: The TGI was 4.86 µM.

Question: Which GI50 does the source give for `O=C(Nc1ncc(Cc2ccccc2)s1)c1ccc2c(c1)OCCO2` here?
Answer: Its GI50 is 0.254 µM.

Question: Which results are given for `CC(C)(C)C(=O)OCOP(=O)(OCOC(=O)C(C)(C)C)C1CCCN(OC(=O)c2ccccc2)C1=O` (centres undefined)?
Answer: GI50: 1.86 µM; TGI: 14.1 µM

Question: `COc1ccccc1CNCCCN1C(=O)c2ccc3c4c(ccc(c24)C1=O)C(=O)N(CCCNCCCCNCCCCN)C3=O` was tested. Which GI50 did it give?
Answer: The GI50 was 0.28 µM.

Question: And the TGI?
Answer: Its TGI is 1.17 µM.

Question: How did the GI50 turn out when `CCc1ccc(CCC(=O)Nc2ncc(Cc3cc(Cl)ccc3Cl)s2)o1` was run?
Answer: The GI50 was 0.769 µM.

Question: What about the TGI of the same molecule?
Answer: The TGI was 5.97 µM.

Question: Which results are given for `O=C(CCCCC(=O)N/N=C\c1ccccc1Cl)N/N=C\c1ccccc1Cl`?
Answer: GI50: 1.83 µM; TGI: 49.5 µM

Question: Which GI50 does the source give for `Nc1ncnc2c1c(-c1cccc(OCc3ccccc3)c1)cn2C1CC(CN2CCCC2)C1` (centres undefined) here?
Answer: The GI50 was 1.38 µM.

Question: What about the TGI of the same molecule?
Answer: The TGI was 3.14 µM.

Question: With `O=C(CSc1nc2ccc([N+](=O)[O-])cc2[nH]1)Nc1cccc(Cl)c1` as the molecule, how does the GI50 read?
Answer: Its GI50 is 1.59 µM.

Question: What about the TGI of the same molecule?
Answer: Its TGI is 5.89 µM.

Question: Which results are given for `CC(C)c1ccc2c(N=Nc3ccc(S(N)(=O)=O)cc3)c(O)[nH]c2c1`?
Answer: GI50: 7.76 µM; TGI: > 25 µM

Question: `COc1ccc(-n2c(SCC(=O)Nc3ccc(-c4nc5ccccc5[nH]4)cc3)nc3ccccc3c2=O)cc1` was tested. Which GI50 did it give?
Answer: The GI50 was 1.97 µM.

Question: And the TGI?
Answer: The TGI was 4.63 µM.

Question: `COc1cc(-c2cc(/C=C/C(=O)c3ccc4c(c3)OCO4)[nH]n2)cc(OC)c1OC` was tested. Which GI50 did it give?
Answer: The GI50 was 1.4 µM.

Question: What about the TGI of the same molecule?
Answer: Its TGI is 2.86 µM.

Question: With `COc1cc(C(=O)NC2CCN(C)CC2)ccc1Nc1ncc2c(n1)N(C1CCCC1)CC(F)(F)C(=O)N2C` as the molecule, how does the GI50 read?
Answer: Its GI50 is < 0.01 µM.

Question: And the TGI?
Answer: The TGI was < 0.0427 µM.

Question: Which results are given for `CS(=O)(=O)N1CCN(Cc2cc3nc(-c4cccc5[nH]ncc45)nc(N4CCOCC4)c3s2)CC1`?
Answer: GI50: 0.0553 µM and 0.123 µM; TGI: 0.467 µM and 0.985 µM

Question: How did the GI50 turn out when `Nc1ccccc1/C=N\Nc1ccccc1` was run?
Answer: Its GI50 is 79.7 µM.

Question: What about the TGI of the same molecule?
Answer: Its TGI is > 100 µM.

Question: `CCCn1cc(C2=C(c3cn(C)c4ccccc34)C(=O)NC2=O)c2ccccc21` was tested. Which GI50 did it give?
Answer: The GI50 was 0.429 µM.

Question: What about the TGI of the same molecule?
Answer: The TGI was 11.1 µM.

Question: With `CCCCCCCCCCCC1=NC(C)(C)CN1CCO` as the molecule, how does the GI50 read?
Answer: The GI50 was 3.27 µM.

Question: And the TGI?
Answer: The TGI was 12.8 µM.

Question: What does the source list for `O=C(/C=C/c1ccccn1)c1ccccc1O`?
Answer: GI50: 1.61 µM; TGI: 3.1 µM

Question: What does the source list for `CCCN(CCC)c1ccc(C=O)cc1`?
Answer: GI50: 16.4 µM; TGI: 53.9 µM

Question: How did the GI50 turn out when `C(=N/Nc1ncnc2nc[nH]c12)/c1ccccn1` was run?
Answer: Its GI50 is 0.0868 µM.

Question: What about the TGI of the same molecule?
Answer: Its TGI is 0.441 µM.

Question: How did the GI50 turn out when `CCOC(=O)c1ccc2c(c1)[n+](=O)c(C(=O)c1ccc3ccccc3c1)c(C(F)(F)F)n2[O-]` was run?
Answer: The GI50 was 0.372 µM.

Question: And the TGI?
Answer: The TGI was 1.51 µM.

Question: What does the source list for `COc1ccc(C(=O)Nc2ncc(Cc3ccccc3Cl)s2)cc1`?
Answer: GI50: 0.353 µM; TGI: 33 µM

Question: What does the source list for `Cn1cc(C2=C(c3c4n(c5ccccc35)CC(CN)C4)C(=O)NC2=O)c2ccccc21` (centres undefined)?
Answer: GI50: 2.79 µM; TGI: 6.17 µM

Question: With `O=C(c1ccccc1)c1ccc(Cl)c([N+](=O)[O-])c1` as the molecule, how does the GI50 read?
Answer: Its GI50 is 2.16 µM.

Question: And the TGI?
Answer: The TGI was 6.46 µM.

Question: How did the GI50 turn out when `COC1OCC(OS(=O)(=O)c2ccc(C)cc2)C(OC(=O)c2ccccc2)C1OC(=O)c1ccccc1` (centres undefined) was run?
Answer: Its GI50 is 2.5 µM.

Question: What about the TGI of the same molecule?
Answer: The TGI was > 100 µM.

Question: For `C#CC[C@@H]1C[C@]2(C)[C@H]3CC[C@@H]4[C@H]5[C@H](C(=C)C)CC[C@]5(C(=O)O)CC[C@@]4(C)[C@]3(C)CC[C@H]2C(C)(C)[C@H]1O`, which GI50 is on record?
Answer: The GI50 was 2.21 µM.

Question: And the TGI?
Answer: The TGI was 5.29 µM.

Question: Which GI50 does the source give for `O=C1[C@H]2Cc3c([nH]c4ccccc34)[C@@H](c3ccc(Br)cc3)N2C(=O)CN1C1CCN(CC2CCCCC2)CC1` here?
Answer: Its GI50 is 13.2 µM.

Question: And the TGI?
Answer: The TGI was 27.2 µM.

Question: Which GI50 does the source give for `O=C1Nc2ccccc2C1(c1ccc(O)c(F)c1)c1ccc(O)c(F)c1` here?
Answer: The GI50 was 0.29 µM.

Question: And the TGI?
Answer: The TGI was 0.996 µM.

Question: Which results are given for `O=C1Nc2cc(Cl)ccc2Oc2cc(Oc3ccccc3)ccc21`?
Answer: GI50: 1.85 µM; TGI: 8.88 µM

Question: With `Cc1ccc(Cl)cc1Nc1nc(C(F)(F)F)ccc1C(=O)N/N=C/c1c(Cl)cccc1Cl` as the molecule, how does the GI50 read?
Answer: The GI50 was 0.662 µM.

Question: And the TGI?
Answer: Its TGI is 8.47 µM.

Question: For `N/C(=N\c1nc2c(Cl)cc(Cl)cc2s1)C(Cl)(Cl)Cl`, which GI50 is on record?
Answer: Its GI50 is 2.85 µM.

Question: And the TGI?
Answer: The TGI was 12.3 µM.

Question: For `C=C1C(=O)O[C@H]2[C@H]1CC/C(COC(=O)/C=C\C(=O)NCc1ccc(Cn3c(=O)sn(-c4ccc(OC)cc4)c3=O)cc1)=C\CC[C@@]1(C)O[C@@H]21`, which GI50 is on record?
Answer: The GI50 was 0.652 µM.

Question: And the TGI?
Answer: The TGI was 1.52 µM.

Question: Which results are given for `Fc1ccc(-c2ncn(C3CCNCC3)c2-c2ccnc(Oc3ccccc3)n2)cc1`?
Answer: GI50: 3.69 µM; TGI: 12.2 µM

Question: Which results are given for `CCOC(=O)C1=C(N)Oc2c(sc3c(C)cccc23)C1c1ccc(Cl)cc1` (centres undefined)?
Answer: GI50: 3.11 µM; TGI: 13.4 µM

Question: Which GI50 does the source give for `CCOCCc1c(O)nc(SC)[nH]c1=O` here?
Answer: Its GI50 is > 100 µM.

Question: What about the TGI of the same molecule?
Answer: The TGI was > 100 µM.

Question: With `COc1ccc(Nc2c3c4c(cccc4[nH]c2=O)C(=O)c2ccccc2-3)cc1` as the molecule, how does the GI50 read?
Answer: The GI50 was 0.0237 µM.

Question: How did the GI50 turn out when `O=C(CCc1nnc(-c2c(Cl)cccc2Cl)o1)c1nc2ccccc2[nH]1` was run?
Answer: The GI50 was 0.797 µM.

Question: And the TGI?
Answer: Its TGI is 12.2 µM.

Question: With `C=C1C(=O)O[C@H]2[C@H]1CC/C(C=Nc1ccc(C(F)(F)F)cc1N)=C\CC[C@@]1(C)O[C@@H]21` as the molecule, how does the GI50 read?
Answer: The GI50 was 3.49 µM.

Question: What about the TGI of the same molecule?
Answer: The TGI was 12.6 µM.
